The numbers were not newly measured in US7470509B2, “Compositions and methods for the identification, assessment, prevention and therapy of ovarian cancer” (Millennium Pharmaceuticals, Inc., priority 2002, dated 2008), which cites them from elsewhere.

For the series, the system named is tumor. As to conditions: U.S. Pat. No. 5,840,929.

For the compound `CC(=O)O[C@@]12CO[C@@H]1C[C@H](O)[C@@]1(C)C(=O)[C@H](O)C3=C(C)[C@@H](OC(=O)[C@H](O)[C@@H](NC(=O)OC(C)(C)C)c4ccccc4)C[C@@](O)([C@@H](OC(=O)c4ccccc4)[C@H]21)C3(C)C` [Taxotere, docetaxel], the “anti-tumor activity in animal models” value was “good anti-tumor activity”.
